In US20050080140A1, “Method for treating or preventing inflammatory disorders” (AnGes MG, Inc., priority 2003, published 2005):

Columns and labels:
[1] = system: adhesion between human vascular endothelial cells and monocytic leukocyte U937 cells; test: Adherence assay of U937 cells to endothelial monolayers; type: cell-based; settings: HUVEC
Protocol: HUVEC (2.5×10^4 cells/cm^2) were cultured in 12-well plates. After 24 h, confluent monolayers were used for adherence assays. Monolayers were preincubated in EGM-2 containing 2% FBS, 0 or 10 ng/ml TNF-α, 0 or 10 ng/ml IL-13 and 0 or 10 μM cPGI with or without anti-IL-13 monoclonal antibody (0.5 μg/ml) at 37° C. for 0 to 24 h. Human monocyte leukocyte U937 cells were cultured in RPMI 1640 (Gibco-Invitrogen) containing 10% FBS, 100 U/ml penicillin and […] streptomycin , labeled with 2.5 μM calcein-AM (Molecular Probes, Eugene, Oreg.) at room temperature for 45 min, washed and resuspended in serum-free EGM-2. The calcein-labeled U937 cells (8×10^4 cells/well) were added to pretreated endothelial cells and incubated with cPGI (0, 10 μM), recombinant IL-13 (0, 10 ng/ml) and anti-IL-13 monoclonal antibody (0, 0.5 μg/ml). U937 cells were allowed to adhere to pretreated endothelial cells for 30 min at 37° C. Adherence was assessed with a fluorescence image analyzer (FLA-2000; Fujifilm, Tokyo, Japan). Plates were scanned before and after washing for total and adherent cells, respectively, and relative adherence was calculated (fold of control).

PPRE (PPARδ activation) = test: PPREx3-luciferase reporter assay; type: cell-based, human; settings: HUVEC, 24 h
Protocol: Primary cultured human umbilical vein endothelial cells (HUVEC) and human aortic endothelial cells (HAEC) were obtained from Kurabo Co. Ltd. (Tokyo, Japan) and were cultured in EGM-2 growth medium supplemented with 2% fetal bovine serum (FBS) and a mixture of growth factors according to the supplier's instructions. Total RNA from the cells in culture was prepared with Isogen (Nippon Gene, Tokyo, Japan). Human embryonic kidney HEK-293 cells were cultured in DMEM containing 10% FBS, 2 mM L-glutamine, 100 U/ml penicillin and […] streptomycin as described previously (Hatae et al., J. Biol. Chem. (2001) 276: 46260-7). […] HEK-293 cells were transfected with DNA using lipofectAMINE (Invitrogen, Carlsbad, Calif.) as described previously (Hatae et al., J. Biol. Chem. (2001) 276: 46260-7). Human vascular endothelial cells were transfected with TransIT LT-1 (PanVera Co., Madison, Wis.). Transfections were performed at a ratio of 1 μg of DNA to 3.0 μl of the reagents, and cells were incubated in serum-free EGM-2 at 37° C. for 5 h. Subsequently, cells were grown in fresh EGM-2 containing 2% FBS and a mixture of growth factors for 12 h before analysis. For reporter assay, human vascular endothelial cells (1.2×10^4 cells/cm^2) were cotransfected with 0.2 μg of the PPREx3-luciferase reporter vector and 0.1 μg of β-galactosidase expression vector by use of TransIT LT-1. After 17 h of transfection, cells were washed with PBS, incubated in EGM-2 containing 2% FBS and cPGI (0-100 μM) for 24 h at 37° C., and subjected to luciferase assay as described previously (Hatae et al., J. Biol. Chem. (2001) 276: 46260-7). The luciferase activity of the extract was normalized to β-galactosidase activity.

SMILES: CCCCC[C@H](O)/C=C/[C@@H]1[C@H]2C/C(=C/CCCC(=O)O)C[C@H]2C[C@H]1O [cPGI, carbaprostacyclin]
- TNF-α-induced monocytic leukocyte-endothelial cell adhesion ([1]; TNF-α 10 ng/ml plus antibody 0.5 μg/ml, cPGI 10 μM or IL-13 10 ng/ml, 24 h, FIG. 4D lanes 3-5): inhibited
- adhesion over time, TNF-α pretreatment in the presence of cPGI ([1]; TNF-α 10 ng/ml, cPGI 10 μM, 0 h to 24 h, FIG. 4E): dramatically inhibited
- luciferase activity of PPRE reporter, exogenous cPGI added to TNF-α (PPRE (PPARδ activation); TNF-α 0-10 ng/ml with cPGI 0, 2 or 10 μM, dose-dependent, FIG. 4B): enhanced
- luciferase activity of reporter vector containing PPRE (PPRE (PPARδ activation); cPGI 0, 1, 10 and 100 μM, FIG. 1C): dose-dependent
